Data from patent publication US20130143738A1, “HERBICIDAL COMPOSITION CONTAINING CERTAIN PYRIDINE CARBOXYLIC ACIDS AND (2,4-DICHLOROPHENOXY)ACETIC ACID” (DOW AGROSCIENCES LLC, priority 2011, published 2013).
Like-named read-outs stand apart in the source and are kept apart here.

Columns and labels:
[1] = tested on: PANDI - fall panicum (Panicum dichotomiflorum Michx.); assay: Greenhouse evaluation of postemergence herbicidal activity, foliar treatment, PANDI; assay type: in vivo; conditions: 16 DAA
Description: (§1) Seeds or nutlets of the desired test plant species were planted in a soil matrix prepared by mixing a sandy loam soil (28.6 percent silt, 18.8 percent clay, and 52.6 percent sand, with a pH of about 5.8 and an organic matter content of about 1.8 percent) and calcareous grit in an 80 to 20 ratio. The soil matrix was contained in plastic pots with a surface area of 84.6 cm^2 and a volume of 560 cubic centimeters (cm^3). When required to ensure good germination and healthy plants, a fungicide treatment and/or other chemical or physical treatment was applied. The plants were grown for 7-31 days (d) in a greenhouse with an approximate 15 hour (h) photoperiod which was maintained at about 23-29° C. during the day and 22-28° C. during the night. Nutrients (Peters Excel® 15-5-15 5-Ca2-Mg) and water were added on a regular basis and supplemental lighting was provided with overhead metal halide 1000-Watt lamps as necessary. The plants were employed for testing when they reached the first, second, or third true leaf stage.
Treatment requirements were calculated based upon the rates being tested, the concentration of active ingredient or acid equivalent in the formulation, and a 12 mL application volume at a rate of 187 L/ha.
(§2) Treatments consisted of the potassium (K^+) salt of 4-amino-3-chloro-6-(4-chloro-2-fluoro-3-methoxy-phenyl)pyridine-2-carboxylic acid formulated as an SL or the benzyl ester of 4-amino-3-chloro-6-(4-chloro-2-fluoro-3-methoxy-phenyl)pyridine-2-carboxylic acid as technical material, and 2,4-D dimethylamine (DMA) salt applied as Weedar® 64 EC alone and in combination. Forms of the pyridine carboxylic acid and 2,4-D were applied on an acid equivalent basis.
(§3) For treatments comprised of formulated compounds, measured amounts of compounds were placed individually in 25 mL glass vials and diluted in a volume of 1.5% (v/v) Agri-dex® crop oil concentrated to obtain 6× stock solutions. […] Application solutions were prepared by adding an appropriate amount of each stock solution (typically 2 mL) and diluted to the appropriate final concentrations with the addition of an appropriate amount of an aqueous mixture of 1.5% (v/v) crop oil concentrate and an appropriate amount of water so that the final spray solutions contained 1.25+/−0.05% (v/v) crop oil concentrate.
For treatments comprised of formulated and technical compounds, weighed amounts of the technical materials were placed individually in 25 mL glass vials and dissolved in a volume of 97:3 v/v acetone/DMSO to obtain 6× stock solutions, and measured amounts of the formulated compounds were placed individually in 25 mL glass vials and diluted in a volume of 1.5% (v/v) crop oil concentrate to obtain 6× stock solutions. […]

[2] = tested on: LOLMU - Italian ryegrass (Lolium perenne L. ssp. multiflorum (Lam.) Husnot); conditions: 14 DAA, greenhouse, foliar
Method: as §1, with “When required to ensure good germination and healthy plants, a fungicide treatment and/or other chemical or physical treatment was applied.” left out
as §2, §3
(§4) For treatments comprised of formulated and technical compounds, weighed amounts of the technical materials were placed individually in 25 mL glass vials and dissolved in a volume of 97:3 v/v acetone/DMSO to obtain 6× stock solutions, and measured amounts of the formulated compounds were placed individually in 25 mL glass vials and diluted in a volume of 1.5% (v/v) crop oil concentrate to obtain 6× stock solutions. […] Application solutions were prepared by adding an appropriate amount of each stock solution (eg, 2 mL) and diluted to the appropriate final concentrations with the addition of an appropriate amount of an aqueous mixture of 1.5% (v/v) crop oil concentrate and an appropriate amount of water so that the final spray solutions contained 1.25% (v/v) crop oil concentrate. The final acetone and DMSO concentrations of the application solutions containing technical material were 16.2% and 0.5%, respectively.
(§5) All stock solutions and applications solutions were visually inspected for compound compatibility prior to application. Compound requirements are based upon a 12 mL application volume at a rate of 187 liters per hectare (L/ha). Application solutions were applied to the plant material with an overhead Mandel track sprayer equipped with 8002E nozzles calibrated to deliver 187 L/ha over an application area of 0.503 square meters (m^2) at a spray height of 18 to 20 inches above the average plant canopy height. Control plants were sprayed in the same manner with the solvent blank.
(§6) The treated plants and control plants were placed in a greenhouse as described above and watered by sub-irrigation to prevent wash-off of the test compounds. After approximately 2 weeks, the condition of the test plants as compared with that of the untreated plants was determined visually and scored on a scale of 0 to 100 percent where 0 corresponds to no injury and 100 corresponds to complete kill.

[3] = tested on: ELEIN - goosegrass (Eleusine indica (L.) Gaertn.); conditions: 14 DAA, greenhouse, foliar
Method: as §1, with “When required to ensure good germination and healthy plants, a fungicide treatment and/or other chemical or physical treatment was applied.” left out
as §2, §3, §4, §5, §6

[4] = tested on: MEOPA - escoba blanca (Melochia parviflora); assay: Field evaluation of postemergence herbicidal activity of mixtures in range and pasture (Colombia); assay type: in vivo; conditions: 14 DAA
Method: Field trials were conducted in pastures in Colombia using standard herbicide small plot research methodology. Plot size was typical for small plot research, varying from 2 meters (m) wide by 6 m long. There were 4 replicates per treatment. Soil type ranged from medium to heavy soil texture. Perennial pastures were sown by hand direct dry seeding as per normal local cultural practices. The pastures were grown using normal cultural practices for fertilization and maintenance to ensure good growth of the pastures and the weeds.
Treatments were applied by backpack sprayer using either compressed air or carbon dioxide (CO2), at spray pressures from […]. Spray tips were typically Flat Fan Teejet nozzles, such as TJ8003. Spray volumes used were 400 liters per hectare (L/ha). MEOPA plant size at application varied from 70 to 80 centimeters (cm) tall active growth at flowering stage.
For each treatment, the appropriate formulated product amount to treat the plot area, to achieve the desired application rate, based on unit area of application (hectare), was calculated, measured, and mixed in water prior to applying with the backpack sprayer. Treatments were rated as compared to the untreated control plots. 2,4-D was used as Invesamina 480 SL®. Compound I was formulated as a 10% weight percent active ingredient (wt ai %—100 grams ai per L (g ai/L); 95.94 g ae/L) suspension concentrate (SC) of the corresponding methyl ester.
For both Example 1 and Example 2, the Colby equation was used to determine the herbicidal effects expected from the mixtures (Colby, S. R. Calculation of the synergistic and antagonistic response of herbicide combinations. Weeds 1967, 15, 20-22.).
The following equation was used to calculate the expected activity of mixtures containing two active ingredients, A and B:
A=observed efficacy of active ingredient A at the same concentration as used in the mixture.
B=observed efficacy of active ingredient B at the same concentration as used in the mixture.

[5] = 2,4-D dimethyl amine 52.5 g ae/ha alone
[6] = 2,4-D dimethyl amine 105 g ae/ha alone
[7] = potassium salt 3.75 g ae/ha alone

CNC.O=C(O)COc1ccc(Cl)cc1Cl [2,4-D (Dimethyl Amine), 2,4-D dimethylamine (DMA) salt]
PANDI (% Control) Obs [1, 5]: 0% | PANDI (% Control) Obs [1, 6]: 0% | PANDI (% Control) Obs ([1]; 2,4-D dimethyl amine 210 g ae/ha alone): 0% | LOLMU (% Control) Obs [2, 5]: 0% | LOLMU (% Control) Obs [2, 6]: 0% | ELEIN (% Control) Obs [3, 5]: 0% | ELEIN (% Control) Obs [3, 6]: 0%

O=C(O)COc1ccc(Cl)cc1Cl [2,4-D, (2,4-dichlorophenoxy)acetic acid]
MEOPA (% Control) Obs ([4]; 2,4-D 480 g ae/ha alone): 3.8%

COc1c(Cl)ccc(-c2cc(N)c(Cl)c(C(=O)OCc3ccccc3)n2)c1F [Pyridine Carboxylic Acid (Benzyl Ester), benzyl ester of 4-amino-3-chloro-6-(4-chloro-2-fluoro-3-methoxy-phenyl)pyridine-2-carboxylic acid]
ELEIN (% Control) Obs ([3]; benzyl ester 3.75 g ae/ha alone): 0% | ELEIN (% Control) Obs ([3]; benzyl ester 7.5 g ae/ha alone): 25%

COC(=O)c1nc(-c2ccc(Cl)c(OC)c2F)cc(N)c1Cl [Pyridine Carboxylic Acid (Methyl Ester), halauxifen-methyl]
MEOPA (% Control) Obs ([4]; methyl ester 17.5 g ae/ha alone): 48.5% | MEOPA (% Control) Obs ([4]; methyl ester 35 g ae/ha alone): 63.1%

COc1c(Cl)ccc(-c2cc(N)c(Cl)c(C(=O)[O-])n2)c1F.[K+] [potassium (K^+) salt of 4-amino-3-chloro-6-(4-chloro-2-fluoro-3-methoxy-phenyl)pyridine-2-carboxylic acid]
PANDI (% Control) Obs [1, 7]: 75% | LOLMU (% Control) Obs [2, 7]: 15% | LOLMU (% Control) Obs ([2]; potassium salt 7.5 g ae/ha alone): 35%
